In BindingDB's records for doi:10.1016/j.bioorg.2015.09.008 (Gc University, 2015):

Columns and labels:
[1] = molecular target: Alpha-glucosidase MAL12 (Saccharomyces cerevisiae (strain ATCC 204508 / S288c), UniProt P53341); assay: α-Glucosidase Assay; conditions: pH 6.8
Method: The α-glucosidase inhibition activity was performed with slight modifications according to method. […] Thecontents were mixed, preincubated for 10 min at 37 °C and preread at 400 nm. The reaction was initiated by the addition of 10 µL of 0.5 mM substrate (p-nitrophenyl glucopyranoside, Sigma Inc.). After 30 min of incubation at 37 °C, absorbance of the yellow color produced due to the formation of p-nitrophenol was measured at 400 nm using Synergy HT (BioTek, USA) 96-well microplate reader. Acarbose was used as positive control.

[2] = molecular target: Cholinesterase (Homo sapiens, UniProt P06276); assay: AChE and BChE Assay; conditions: pH 7.7
Method: (§1) The AChE inhibition assay was performed according to the Ellman's method. Total volume of 100 µL reaction mixture contained 60 µL 50 mM Na2HPO4 buffer, pH 7.7. Ten µL test compound (0.5 mM well#1) was added, followed by the addition of10 µL (0.005 unit well#1 AChE, 0.5 unit well#1 BChE, Sigma Inc.) enzyme. […] The reaction was initiated by the addition of 10 µL of 0.5 mM well#1 substrate (acetylthiocholine iodide or butyrylthiocholine chloride, Sigma Inc.), followed bythe addition of 10 µL DTNB from Sigma Inc. (0.5 mM well#1). After 15 min of incubation at 37 °C, absorbance was measured using 96-well plate reader Synergy HT, Biotek, USA. All experiments were carried out with their respective controls in triplicate.

[3] = molecular target: Acetylcholinesterase (Electrophorus electricus, UniProt O42275); assay: AChE and BChE Assay; conditions: pH 7.7
Method: as §1

Chain of Acetylcholinesterase (O42275 whole entry): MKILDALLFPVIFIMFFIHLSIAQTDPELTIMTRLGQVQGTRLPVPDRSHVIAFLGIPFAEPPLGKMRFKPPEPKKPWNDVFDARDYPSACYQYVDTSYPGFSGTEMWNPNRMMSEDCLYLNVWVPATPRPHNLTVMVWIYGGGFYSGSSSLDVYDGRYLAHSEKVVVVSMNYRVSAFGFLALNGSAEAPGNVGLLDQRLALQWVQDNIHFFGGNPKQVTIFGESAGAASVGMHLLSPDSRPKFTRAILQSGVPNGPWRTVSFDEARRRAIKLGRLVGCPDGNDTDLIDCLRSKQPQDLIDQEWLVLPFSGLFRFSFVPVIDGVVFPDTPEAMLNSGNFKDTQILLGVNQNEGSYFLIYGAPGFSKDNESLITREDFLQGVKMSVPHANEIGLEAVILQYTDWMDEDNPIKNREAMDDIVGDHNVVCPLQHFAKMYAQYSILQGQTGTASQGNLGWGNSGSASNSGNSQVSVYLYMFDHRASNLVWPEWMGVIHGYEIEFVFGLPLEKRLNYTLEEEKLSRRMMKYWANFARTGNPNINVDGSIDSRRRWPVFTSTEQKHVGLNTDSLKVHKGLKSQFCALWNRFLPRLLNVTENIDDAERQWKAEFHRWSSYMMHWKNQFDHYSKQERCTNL
Chain of Alpha-glucosidase MAL12 (P53341 whole entry): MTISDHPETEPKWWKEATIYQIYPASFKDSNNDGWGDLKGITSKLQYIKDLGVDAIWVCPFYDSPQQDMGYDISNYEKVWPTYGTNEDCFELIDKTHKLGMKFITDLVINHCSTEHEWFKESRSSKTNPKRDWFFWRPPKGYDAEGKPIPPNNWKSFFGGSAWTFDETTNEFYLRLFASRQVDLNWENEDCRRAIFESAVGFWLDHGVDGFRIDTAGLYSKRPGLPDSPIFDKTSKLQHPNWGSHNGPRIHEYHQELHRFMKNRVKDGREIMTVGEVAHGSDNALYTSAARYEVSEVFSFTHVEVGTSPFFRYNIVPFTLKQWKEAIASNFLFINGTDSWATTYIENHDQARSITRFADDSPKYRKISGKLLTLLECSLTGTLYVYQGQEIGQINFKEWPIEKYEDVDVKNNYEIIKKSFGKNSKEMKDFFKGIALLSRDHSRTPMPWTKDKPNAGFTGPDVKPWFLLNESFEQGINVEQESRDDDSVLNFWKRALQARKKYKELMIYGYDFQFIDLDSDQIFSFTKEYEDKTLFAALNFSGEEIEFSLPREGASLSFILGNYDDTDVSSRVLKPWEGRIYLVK
Chain of Cholinesterase (P06276 whole entry): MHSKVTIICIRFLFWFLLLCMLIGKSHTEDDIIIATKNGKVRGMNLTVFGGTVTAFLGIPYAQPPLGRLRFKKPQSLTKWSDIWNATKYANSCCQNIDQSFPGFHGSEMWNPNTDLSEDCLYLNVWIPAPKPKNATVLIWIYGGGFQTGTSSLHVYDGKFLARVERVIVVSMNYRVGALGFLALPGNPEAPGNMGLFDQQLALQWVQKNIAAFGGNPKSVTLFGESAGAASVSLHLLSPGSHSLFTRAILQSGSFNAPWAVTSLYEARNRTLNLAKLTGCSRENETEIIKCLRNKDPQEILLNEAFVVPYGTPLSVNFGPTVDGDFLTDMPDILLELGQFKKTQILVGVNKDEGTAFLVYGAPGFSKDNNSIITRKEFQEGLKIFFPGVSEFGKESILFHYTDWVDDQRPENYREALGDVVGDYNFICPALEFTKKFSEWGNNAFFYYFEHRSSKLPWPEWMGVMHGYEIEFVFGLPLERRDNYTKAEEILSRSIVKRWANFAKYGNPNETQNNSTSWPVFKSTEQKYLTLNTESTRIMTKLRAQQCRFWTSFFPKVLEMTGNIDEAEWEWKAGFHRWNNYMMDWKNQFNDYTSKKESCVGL

Row | Compound | IC50 [1] | IC50 [2] | IC50 [3]
1 | O=C(NNS(=O)(=O)c1ccccc1)c1cc(C(=O)NNS(=O)(=O)c2ccccc2)nc(C(=O)NNS(=O)(=O)c2ccccc2)c1 [N',N'',N'''-(pyridine-2,4,6-tricarbonyl)tribenzenesulfonohydrazide (4a)] | 32.2 µM | 43.8 µM | 50.2 µM
2 | O=C(NNS(=O)(=O)c1ccc(Cl)cc1)c1cc(C(=O)NNS(=O)(=O)c2ccc(Cl)cc2)nc(C(=O)NNS(=O)(=O)c2ccc(Cl)cc2)c1 [N',N'',N'''-(pyridine-2,4,6-tricarbonyl)tris(4-chlorobenzenesulfonohydrazide (4d)] | 28.8 µM |  | 
3 | CCS(=O)(=O)NNC(=O)c1cc(C(=O)NNS(=O)(=O)CC)nc(C(=O)NNS(=O)(=O)CC)c1 [N',N'',N'''-(pyridine-2,4,6-tricarbonyl)triethanesulfonohydrazide (4h)] |  | 112 µM | 29.1 µM
4 | CS(=O)(=O)NNC(=O)c1cc(C(=O)NNS(C)(=O)=O)nc(C(=O)NNS(C)(=O)=O)c1 [N',N'',N'''-(pyridine-2,4,6-tricarbonyl)trimethanesulfonohydrazide (4g)] |  | 44.8 µM | 10.8 µM
5 | O=C(NNS(=O)(=O)c1ccc(F)cc1)c1cc(C(=O)NNS(=O)(=O)c2ccc(F)cc2)nc(C(=O)NNS(=O)(=O)c2ccc(F)cc2)c1 [N',N'',N'''-(pyridine-2,4,6-tricarbonyl)tris(4-fluorobenzenesulfonohydrazide (4c)] | 25.6 µM |  | 
6 | Cc1ccc(S(=O)(=O)NNC(=O)c2cc(C(=O)NNS(=O)(=O)c3ccc(C)cc3)nc(C(=O)NNS(=O)(=O)c3ccc(C)cc3)c2)cc1 [N',N'',N'''-(pyridine-2,4,6-tricarbonyl)tris(4-methylbenzenesulfonohydrazide) (4e)] | 125 µM |  | 
7 | O=C(NNS(=O)(=O)c1ccc(Br)cc1)c1cc(C(=O)NNS(=O)(=O)c2ccc(Br)cc2)nc(C(=O)NNS(=O)(=O)c2ccc(Br)cc2)c1 [N',N'',N'''-(pyridine-2,4,6-tricarbonyl)tris(4-bromobenzenesulfonohydrazide) (4b)] | 26.8 µM |  | 
